Assay results taken from patent US10093683B2, “Factor XIa inhibitors” (Merck Sharp & Dohme Corp., priority 2014, dated 2018).

What follows are compounds tested against human Factor XIa (Homo sapiens (Human), UniProt P03951) (assay: Factor XIa Assay). Conditions: purified human Factor XIa 40 pM, Z-Gly-Pro-Arg-AFC 100 μM, pH 7.4; read-out: FXIa Ki.
Format: biochemical
Outline: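 Purified human FXIa (40 pM final) hydrolysing fluorogenic Z-Gly-Pro-Arg-AFC (100 μM) in 50 mM HEPES pH 7.4, 150 mM NaCl, 5 mM CaCl2, 0.1% PEG 8000, at room temperature or 37° C. Initial velocities measured after enzyme–inhibitor equilibration; Ki from Vo/Vi versus [I], assuming competitive inhibition.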

Chain of human Factor XIa (P03951 388-625): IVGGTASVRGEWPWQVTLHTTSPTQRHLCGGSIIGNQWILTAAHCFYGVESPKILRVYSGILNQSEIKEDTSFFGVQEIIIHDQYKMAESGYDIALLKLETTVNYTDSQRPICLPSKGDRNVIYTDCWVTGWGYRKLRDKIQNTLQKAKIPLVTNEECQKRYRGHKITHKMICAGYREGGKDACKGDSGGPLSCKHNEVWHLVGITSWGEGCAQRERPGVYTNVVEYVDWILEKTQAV
Chain of human Factor XIa (P03951 19-387 partner): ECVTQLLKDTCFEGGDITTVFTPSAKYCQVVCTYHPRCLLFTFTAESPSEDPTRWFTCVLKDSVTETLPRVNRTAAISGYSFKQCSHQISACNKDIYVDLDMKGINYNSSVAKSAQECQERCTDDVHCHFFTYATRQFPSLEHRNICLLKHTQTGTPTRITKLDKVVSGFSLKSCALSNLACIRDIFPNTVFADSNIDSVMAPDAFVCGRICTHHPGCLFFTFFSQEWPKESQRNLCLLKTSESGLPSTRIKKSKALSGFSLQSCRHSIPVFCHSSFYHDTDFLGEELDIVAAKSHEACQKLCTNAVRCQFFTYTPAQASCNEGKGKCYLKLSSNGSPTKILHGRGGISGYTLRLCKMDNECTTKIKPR

**Q.** `COC(=O)Nc1ccc(-c2ncc(C(Cc3ccccc3)C(=O)N3CC[C@@]4(C3)OC(=O)Nc3ccc(Cl)c(F)c34)[nH]2)cc1` (stereo partly drawn) [Example 130, methyl (4-(5-(1-((R)-6-chloro-5-fluoro-2-oxo-1,2-dihydrospiro[benzo[d][1,3]oxazine-4,3′-pyrrolidin]-1′-yl)-1-oxo-3-phenylpropan-2-yl)-1H-imidazol-2-yl)phenyl)carbamate] was tested. Which Ki did it give?
**A.** The Ki was 0.0919 µM.

**Q.** With `COC(=O)Nc1ccc2[nH]c([C@@H](Cc3ccccc3)C(=O)N3CC[C@@]4(C3)OC(=O)Nc3ccc(Cl)cc34)nc2c1` [Example 131c, methyl (2-((R)-1-((R)-6-chloro-2-oxo-1,2-dihydrospiro[benzo[d][1,3]oxazine-4,3′-pyrrolidin]-1′-yl)-1-oxo-3-phenylpropan-2-yl)-1H-benzo[d]imidazol-5-yl)carbamate] as the compound, how does the Ki read?
**A.** Its Ki is 0.354 µM.

**Q.** `COC(=O)Nc1ccc2[nH]c([C@@H](Cc3ccccc3)C(=O)N3CC[C@]4(C3)OC(=O)Nc3ccc(Cl)cc34)nc2c1` [Example 131d, methyl (2-((R)-1-((S)-6-chloro-2-oxo-1,2-dihydrospiro[benzo[d][1,3]oxazine-4,3′-pyrrolidin]-1′-yl)-1-oxo-3-phenylpropan-2-yl)-1H-benzo[d]imidazol-5-yl)carbamate] was tested. Which Ki did it give?
**A.** Its Ki is 5 µM.

**Q.** How did the Ki turn out when `O=C1Nc2ccc(Cl)cc2[C@@]2(CCCN(C(=O)C(Cc3ccc(F)cc3)c3nc4ccc(F)cc4[nH]3)C2)O1` (stereo partly drawn) [Example 133, (4R)-6-chloro-1′-(2-(6-fluoro-1H-benzo[d]imidazol-2-yl)-3-(4-fluorophenyl)propanoyl)spiro[benzo[d][1,3]oxazine-4,3′-piperidin]-2(1H)-one] was run?
**A.** The Ki was 8.75 µM.

**Q.** Which Ki does the source give for `COC(=O)Nc1ccc2[nH]c(C(Cc3ccccc3)C(=O)N3CCC[C@@]4(C3)OC(=O)Nc3ccc(Cl)c(F)c34)cc2c1` (stereo partly drawn) [Example 134, methyl (2-(1-((R)-6-chloro-5-fluoro-2-oxo-1,2-dihydrospiro[benzo[d][1,3]oxazine-4,3′-piperidin]-1′-yl)-1-oxo-3-phenylpropan-2-yl)-1H-indol-5-yl)carbamate] here?
**A.** The Ki was over 0.875 µM.

**Q.** How did the Ki turn out when `O=C1Nc2ccc(Cl)cc2[C@@]2(CCCN(C(=O)C(CC3CC3)Nc3n[nH]c4cc(F)ccc34)C2)O1` (stereo partly drawn) [Example 135, (4R)-6-chloro-1′-(3-cyclopropyl-2-((6-fluoro-1H-indazol-3-yl)amino)propanoyl)spiro[benzo[d][1,3]oxazine-4,3′-piperidin]-2(1H)-one] was run?
**A.** Its Ki is over 8.75 µM.

**Q.** Which Ki does the source give for `COC(=O)Nc1ccc2onc(N[C@@H](Cc3ccccc3)C(=O)N3CCC[C@@]4(C3)OC(=O)Nc3ccc(Cl)cc34)c2c1` [Example 138, methyl (3-(((S)-1-((R)-6-chloro-2-oxo-1,2-dihydrospiro[benzo[d][1,3]oxazine-4,3′-piperidin]-1′-yl)-1-oxo-3-phenylpropan-2-yl)amino)benzo[d]isoxazol-5-yl)carbamate] here?
**A.** Its Ki is 8.75 µM.

Same assay, conditions: read-out: FXIa Ki

**Q.** Which Ki does the source give for `NS(=O)(=O)c1ccc(C(=O)N[C@@H](Cc2ccccc2)C(=O)N2CCC3(C2)OC(=O)Nc2ccc(Cl)cc23)cc1` (stereo partly drawn) [Example 139, N-((2S)-1-(6-chloro-2-oxo-1,2-dihydrospiro[benzo[d][1,3]oxazine-4,3′-pyrrolidin]-1′-yl)-1-oxo-3-phenylpropan-2-yl)-4-sulfamoylbenzamide] here?
**A.** Its Ki is 0.928 µM.

**Q.** With `O=C1Nc2ccc(Cl)cc2C2(CCN(C(=O)[C@H](Cc3ccccc3)NC(=O)c3ccc4[nH]ncc4c3)C2)O1` (stereo partly shown) [Example 142] as the compound, how does the Ki read?
**A.** Its Ki is 0.0484 µM.

**Q.** For `Cc1nccnc1C(=O)N[C@@H](Cc1ccccc1)C(=O)N1CCC2(C1)OC(=O)Nc1ccc(Cl)cc12` (stereo partly shown) [Example 145], which Ki is on record?
**A.** The Ki was 3.32 µM.

**Q.** Which Ki does the source give for `Cc1nc(C(=O)N[C@@H](Cc2ccccc2)C(=O)N2CCC3(C2)OC(=O)Nc2ccc(Cl)cc23)co1` (stereo partly shown) [Example 146] here?
**A.** Its Ki is 5 µM.

**Q.** `COc1ccc(C(=O)N[C@@H](Cc2ccccc2)C(=O)N2CCC3(C2)OC(=O)Nc2ccc(Cl)cc23)nc1` (stereo partly shown) [Example 147] was tested. Which Ki did it give?
**A.** Its Ki is 4.03 µM.

**Q.** `CS(=O)(=O)c1ccc(C(=O)N[C@@H](Cc2ccccc2)C(=O)N2CCC3(C2)OC(=O)Nc2ccc(Cl)cc23)nc1` (stereo partly shown) [Example 148] was tested. Which Ki did it give?
**A.** Its Ki is 1.87 µM.
